Assay: xn = mol fraction of the nth substance listed

Cc1cnccn1 [2-methylpyrazine] + O=C=O
Fluid (supercritical or subcritical phases), Linear displacement technique
Conditions	mass density [kg/m3]
329.15 K, 13140 kPa, x1 = 0.017	626
329.15 K, 14240 kPa, x1 = 0.017	652
331.05 K, 10450 kPa, x1 = 0.081	785
331.05 K, 10590 kPa, x1 = 0.081	785
331.65 K, 6380 kPa, x1 = 0.624	896
331.65 K, 9900 kPa, x1 = 0.624	901
331.65 K, 13480 kPa, x1 = 0.624	904
331.65 K, 18240 kPa, x1 = 0.624	910
332.35 K, 11210 kPa, x1 = 0.023	375
332.35 K, 12340 kPa, x1 = 0.023	438
332.35 K, 13280 kPa, x1 = 0.023	470
332.35 K, 15340 kPa, x1 = 0.023	519
332.35 K, 16620 kPa, x1 = 0.023	540
332.45 K, 12000 kPa, x1 = 0.122	863
332.45 K, 13550 kPa, x1 = 0.122	881
332.45 K, 15590 kPa, x1 = 0.122	901
333.55 K, 11790 kPa, x1 = 0.033	617
333.55 K, 12720 kPa, x1 = 0.033	679
333.55 K, 13340 kPa, x1 = 0.033	719
333.55 K, 15340 kPa, x1 = 0.033	780
335.65 K, 9480 kPa, x1 = 0.264	822
335.65 K, 10900 kPa, x1 = 0.264	829
335.65 K, 14380 kPa, x1 = 0.264	842
335.65 K, 17720 kPa, x1 = 0.264	852
336.95 K, 12340 kPa, x1 = 0.062	716
336.95 K, 13280 kPa, x1 = 0.062	743
336.95 K, 14520 kPa, x1 = 0.062	775
336.95 K, 16970 kPa, x1 = 0.062	820
337.05 K, 3620 kPa, x1 = 0.857	892
337.05 K, 5550 kPa, x1 = 0.857	893
337.05 K, 9000 kPa, x1 = 0.857	897
337.05 K, 13590 kPa, x1 = 0.857	901
338.55 K, 12240 kPa, x1 = 0.081	752
338.55 K, 13210 kPa, x1 = 0.081	765
338.55 K, 14930 kPa, x1 = 0.081	774
339.25 K, 10930 kPa, x1 = 0.156	847
339.25 K, 13760 kPa, x1 = 0.156	869
339.25 K, 17210 kPa, x1 = 0.156	884
340.45 K, 11280 kPa, x1 = 0.017	346
340.45 K, 11480 kPa, x1 = 0.017	371
340.45 K, 11970 kPa, x1 = 0.017	408
340.45 K, 12790 kPa, x1 = 0.017	455
341.55 K, 14410 kPa, x1 = 0.091	782
341.55 K, 15410 kPa, x1 = 0.091	801
341.55 K, 17340 kPa, x1 = 0.091	828
342.35 K, 11760 kPa, x1 = 0.023	283
342.35 K, 11970 kPa, x1 = 0.023	291
342.35 K, 12340 kPa, x1 = 0.023	300
344.65 K, 12480 kPa, x1 = 0.033	482
344.65 K, 13170 kPa, x1 = 0.033	529
344.65 K, 13860 kPa, x1 = 0.033	578
344.65 K, 14660 kPa, x1 = 0.033	620
344.65 K, 15310 kPa, x1 = 0.033	649
344.65 K, 16550 kPa, x1 = 0.033	683
344.95 K, 11340 kPa, x1 = 0.339	920
344.95 K, 18720 kPa, x1 = 0.339	941
345.05 K, 10790 kPa, x1 = 0.264	808
345.05 K, 12720 kPa, x1 = 0.264	818
345.05 K, 15280 kPa, x1 = 0.264	828
345.05 K, 19170 kPa, x1 = 0.264	842
346.15 K, 14380 kPa, x1 = 0.039	582
346.15 K, 15070 kPa, x1 = 0.039	617
348.65 K, 7590 kPa, x1 = 0.624	879
348.65 K, 11830 kPa, x1 = 0.624	884
348.65 K, 16240 kPa, x1 = 0.624	890
349.45 K, 14100 kPa, x1 = 0.122	787
349.45 K, 15520 kPa, x1 = 0.122	810
349.45 K, 16310 kPa, x1 = 0.122	824
349.45 K, 18790 kPa, x1 = 0.122	852
349.75 K, 14100 kPa, x1 = 0.062	691
349.75 K, 15100 kPa, x1 = 0.062	722
351.15 K, 13970 kPa, x1 = 0.081	778
351.15 K, 14720 kPa, x1 = 0.081	780
351.15 K, 16720 kPa, x1 = 0.081	783
351.35 K, 3760 kPa, x1 = 0.857	878
351.35 K, 7000 kPa, x1 = 0.857	882
351.35 K, 11210 kPa, x1 = 0.857	888
351.35 K, 17340 kPa, x1 = 0.857	893
352.75 K, 14140 kPa, x1 = 0.039	495
352.75 K, 14790 kPa, x1 = 0.039	525
352.75 K, 15410 kPa, x1 = 0.039	543
355.05 K, 11030 kPa, x1 = 0.339	918
355.05 K, 14660 kPa, x1 = 0.339	927
355.05 K, 17280 kPa, x1 = 0.339	939
355.15 K, 13690 kPa, x1 = 0.156	808
355.15 K, 14590 kPa, x1 = 0.156	821
355.15 K, 16930 kPa, x1 = 0.156	843
358.25 K, 15690 kPa, x1 = 0.091	696
358.25 K, 16450 kPa, x1 = 0.091	714
358.25 K, 17690 kPa, x1 = 0.091	743
358.25 K, 19210 kPa, x1 = 0.091	767
358.25 K, 20690 kPa, x1 = 0.091	787
365.65 K, 17000 kPa, x1 = 0.122	746
365.65 K, 18100 kPa, x1 = 0.122	769
365.65 K, 19170 kPa, x1 = 0.122	786
369.15 K, 15970 kPa, x1 = 0.091	633
369.15 K, 16660 kPa, x1 = 0.091	659
369.15 K, 17340 kPa, x1 = 0.091	681
369.15 K, 18100 kPa, x1 = 0.091	701
369.15 K, 19000 kPa, x1 = 0.091	721
371.75 K, 4380 kPa, x1 = 0.857	861
371.75 K, 8450 kPa, x1 = 0.857	865
371.75 K, 15830 kPa, x1 = 0.857	875
371.75 K, 28450 kPa, x1 = 0.857	889
374.25 K, 14030 kPa, x1 = 0.033	346
374.25 K, 14550 kPa, x1 = 0.033	367
374.25 K, 15000 kPa, x1 = 0.033	384
374.25 K, 16240 kPa, x1 = 0.033	425
374.55 K, 17210 kPa, x1 = 0.081	740
374.55 K, 19210 kPa, x1 = 0.081	768
374.75 K, 16100 kPa, x1 = 0.062	592
374.75 K, 16720 kPa, x1 = 0.062	626
374.75 K, 16970 kPa, x1 = 0.062	639
375.55 K, 16790 kPa, x1 = 0.156	765
375.55 K, 18100 kPa, x1 = 0.156	789
375.55 K, 19970 kPa, x1 = 0.156	811
375.75 K, 17000 kPa, x1 = 0.264	758
375.75 K, 20720 kPa, x1 = 0.264	778
375.75 K, 24590 kPa, x1 = 0.264	797
376.35 K, 14860 kPa, x1 = 0.039	367
376.35 K, 15760 kPa, x1 = 0.039	406
376.65 K, 7970 kPa, x1 = 0.624	846
376.65 K, 10970 kPa, x1 = 0.624	852
376.65 K, 14930 kPa, x1 = 0.624	859
376.65 K, 19340 kPa, x1 = 0.624	864
379.45 K, 17410 kPa, x1 = 0.091	598
379.45 K, 20340 kPa, x1 = 0.091	675
379.45 K, 21900 kPa, x1 = 0.091	705
379.45 K, 24210 kPa, x1 = 0.091	731
387.35 K, 15480 kPa, x1 = 0.339	899
387.35 K, 18070 kPa, x1 = 0.339	912
387.35 K, 22790 kPa, x1 = 0.339	933

Liquid, linear displacement
Conditions	mass density [kg/m3]
331.05 K, x1 = 0.081	785
331.65 K, x1 = 0.624	892
332.35 K, x1 = 0.023	323
332.45 K, x1 = 0.122	840
333.55 K, x1 = 0.033	574
335.65 K, x1 = 0.264	822
336.95 K, x1 = 0.062	689
337.05 K, x1 = 0.857	888
338.55 K, x1 = 0.081	746
339.25 K, x1 = 0.156	843
341.55 K, x1 = 0.091	731
344.95 K, x1 = 0.339	913
345.05 K, x1 = 0.264	808
346.15 K, x1 = 0.039	462
348.65 K, x1 = 0.624	875
349.45 K, x1 = 0.122	770
349.75 K, x1 = 0.062	660
351.35 K, x1 = 0.857	878
355.05 K, x1 = 0.339	914
355.15 K, x1 = 0.156	799
358.25 K, x1 = 0.091	656
365.65 K, x1 = 0.122	707
371.75 K, x1 = 0.857	858
375.55 K, x1 = 0.156	745
375.75 K, x1 = 0.264	746
376.65 K, x1 = 0.624	845
387.35 K, x1 = 0.339	891
